From patent publication US6680336B2, “Cyclic AMP-specific phosphodiesterase inhibitors” (ICOS Corporation, priority 1999, dated 2004)
Where two headings read alike, the source gives them in different places.

Assays:
female Balb/c mice = assay: Combined mouse endotoxin-stimulated TNFα release and locomotor activity assay (mobility); type: in vivo
Method: The purpose of this study was to determine the efficacy of PDE4 inhibitors in vivo in an LPS mouse model together with a determination with respect to central nervous system (CNS) side-effects manifested by a decrease in spontaneous mobility.
The test animals were female Balb/c mice, having an average weight of about 20 g. […] Individual dose volumes (about 150 μL) were adjusted based on the body weights measured. One hour later, 5 mg/kQ LPS in a final volume of 200 μL was injected via the tail vein to each animal. Ninety minutes following the LPS treatment, the animals were bled and serum samples were collected before being stored at −70° C. until assayed.
Movement of the X-Y plane, or rearing up on the hind legs, was quantified by counting the number of “light-beam” crosses per unit of time. A decrease in the number of activity events is directly proportional to the mobility or immobilization of the animal. The quantitative scoring correlated well with the subjective measurements described above.
The following table summarizes the mouse locomotor activity assay as mobility (% activity) obtained by the above-described method: […]

[1] = tested on: TNFα secretion in human peripheral blood lymphocytes; assay: Lipopolysaccharide-stimulated TNFα release from human peripheral blood lymphocytes; type: cell-based; conditions: for EC50: Lymphocyte, LPS-stimulated TNFα release from human PBL
Method: The compounds of structural formula (II) also were tested for an ability to reduce TNFα secretion in human peripheral blood lymphocytes. The ability to reduce TNFα secretion is related to the EC50 values i.e., the effective concentration pf the compound capable of inhibiting 50% of the total TNFα).
To assess the ability of a compound to reduce TNFα secretion in human peripheral blood lymphocytes (PBL), the following tests were performed.
Heparinized blood (approximately 30 mL) drawn from human volunteers was mixed 1:1 with Dulbecco's modified phosphate-buffered saline. This mixture was mixed 1:1 with HISTOPAQUE® and centrifuged at 1,500 rpm at room temperature without braking in the swinging bucket of a Beckman model TJ6 centrifuge. Erythrocytes were centrifuged to the bottom of the tubes, and serum remained at the surface of the tubes. A layer containing lymphocytes sedimented between the serum and HISTOPAQUE® layers, and was removed by aspiration to a fresh tube. The cells were quantified and adjusted to […] and a 100 μL aliquot is placed into the wells of a 96 well plate. Test compounds and RPMI media (Gibco/BRL Life Sciences) are added to each of the wells 15 minutes prior to addition of bacterial LPS ([…]). The mixture was allowed to incubate for 20 hours at 37° C. in a humidified chamber. The cells then were separated by centrifuging at 800 rpm for 5 minutes at room temperature. An aliquot of 180 μL of supernatant was transferred to a new plate for determination of TNFα concentration. TNFα protein in the cell supernatant fluids was measured using a commercially available enzyme-linked immunosorbent assay (ELISA) (CYTOSCREEN® Immunoassay Kit from Biosource International).
The cell-based assay provided the following results for various pyrrolidine compounds of the present invention. The EC50 values (i.e., effective concentration of the compound capable of inhibiting 50% of the total TNFα) illustrate the ability of the present compounds to inhibit LPS-stimulated TNFα release from human PBL.

recombinant human PDE4 [2] = target: T1, recombinant human PDE4; assay: PDE4 inhibition, charcoal separation [32P]cAMP phosphodiesterase assay; type: biochemical
T1 construct: PDE4 IC50; other: human recombinant PDE4
Method: The compounds of structural formula (II) were tested for an ability to inhibit PDE4. The ability of a compound to inhibit PDE4 activity is related to the IC50 value for the compound, i.e., the concentration of inhibitor required for 50% inhibition of enzyme activity. The IC50 value for compounds of structural formula (II) were determined using recombinant human PDE4.
Recombinant production of human PDE1B, PDE2, PDE4A, PDE4B, PDE4C, PDE4D, PDE5, and PDE7 was carried out similarly to that described in Example 7 of U.S. Pat. No. 5,702,936, incorporated herein by reference, except that the yeast transformation vector employed, which is derived from the basic ADH2 plasmid described in Price et al., Methods in Enzymology, 185, pp. 308-318 (1990), incorporated yeast ADH2 promoter and terminator sequences and the Saccharomyces cerevisiae host was the protease-deficient strain BJ2-54 deposited on Aug. 31, 1998 with the American Type Culture Collection, Manassas, Va., under accession number ATCC 74465. Transformed host cells were grown in 2×SC-leu medium, pH 6.2, with trace metals, and vitamins. After 24 hours, YEP medium-containing glycerol was added to a final concentration of 2×YET/3% glycerol. Approximately 24 hr later, cells were harvested, washed, and stored at −70° C.
Phosphodiesterase activity of the preparations was determined as follows. PDE assays utilizing a charcoal separation technique were performed essentially as described in Loughney et al. (1996). In this assay, PDE activity converts [32P]cAMP or [32P]cGMP to the corresponding [32P]5′-AMP or [32P]5′-GMP in proportion to the amount of PDE activity present. The [32P]5′-AMP or [32P]5′-GMP then was quantitatively converted to free [32P]phosphate and unlabeled adenosine or guanosine by the action of snake venom 5′-nucleotidase. […] The assay was performed at 30° C. in a 100 μL reaction mixture containing (final concentrations) 40 mM Tris HCl (pH 8.0), 1 μM ZnSO4, 5 mM MgCl2, and 0.1 mg/mL bovine serum albumin (BSA). Alternatively, in assays assessing PDE1-specific activity, incubation mixtures further incorporated the use of 0.1 mM CaCl2 and 10 μg/mL calmodulin. PDE enzyme was present in quantities that yield <30% total hydrolysis of substrate (linear assay conditions). The assay was initiated by addition of substrate (1 mM [32P]cAMP or cGMP), and the mixture was incubated for 12 minutes. Seventy-five (75) μg of Crotalus atrox venom then was added, and the incubation was continued for 3 minutes (15 minutes total). The reaction was stopped by addition of 200 μL of activated charcoal (25 mg/mL suspension in 0.1 M […], pH 4). After centrifugation (750×g for 3 minutes) to sediment the charcoal, a sample of the supernatant was taken for radioactivity determination in a scintillation counter and the PDE activity was calculated.
Inhibitor analyses were performed similarly to the method described in Loughney et al., J. Biol. Chem., 271, pp. 796-806 (1996), except both cGMP and cAMP were used, and substrate concentrations were kept below 32 nM, which is far below the Km of the tested PDEs.

recombinant human PDE4 [3] = conditions: reported value; read-out: IC50 with respect to inhibiting recombinant human PDE4; cited from earlier work
[4] = in vivo; cited from earlier work

SMILES | Mobility (% activity at 50 mg/kg dose) (female Balb/c mice) | EC50 [1] | IC50 (recombinant human PDE4 [2]) | IC50 (recombinant human PDE4 [3]) | Emetic potential relative to the (+)-enantiomer [4] | LPS-induced TNFα secretion from human lymphocytes ([1]; preliminary experiments)
CNC(C)[C@]1(C)CN(C(=O)OC)C[C@H]1c1ccc(OC)c(OC2CCCC2)c1 (mixture of isomers) [Example 19, Methyl (3S,4S)-4-(3-cyclopentyloxy-4-methoxyphenyl)-3-methyl-3-[(methylamino)ethylpyrrolidine Carboxylate] | 145% | 59 nM | 51.7 nM |  |  | 
COc1ccc([C@@H]2CN(Cc3ccccc3)C[C@@]2(C)C(C)N)cc1OC1CCCC1 (single isomer, unassigned) [Example 9] | 55% | 609 nM | 57.5 nM |  |  | 
COc1ccc(C2CN(Cc3ccccc3)C[C@@]2(C)C(C)N)cc1OC1CCCC1 (stereo partly shown) [Example 20] | 93% | 198 nM | 22 nM |  |  | 
COC(=O)N1CC(c2ccc(OC)c(OC3CCCC3)c2)C(C)(C(C)=O)C1 (stereo not shown) [structural formula (I)] |  |  |  | ~2 nM |  | 
COc1ccc([C@@H]2CNC(=O)C2)cc1OC1CCCC1 (single isomer, unassigned) [(−)-enantiomer of rolipram] |  |  |  |  | about ten-fold more emetic than the (+)-enantiomer | 
COc1ccc(C2CNC(=O)C2)cc1OC1CCCC1 (stereo not shown) [Rolipram, reference compound] |  |  |  | ~200 nM |  | inhibit LPS-induced TNFα secretion from human lymphocytes in a dose-dependent fashion
